Data from PubChem BioAssay (NCI).
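Cultured in 96-well plates, cells were exposed to test compound for 48 hours across five concentrations. TGI: concentration producing complete growth inhibition.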

Legend:
Experiment in all cases: DTP human tumour cell line panel, 48 h
NCI-H460 lung = tested on: NCI-H460 lung
HCT-15 colon = tested on: HCT-15 colon
BT-549 breast = tested on: BT-549 breast
M19-MEL melanoma = tested on: M19-MEL melanoma
RXF-631 renal = tested on: RXF-631 renal
HCT-116 colon = tested on: HCT-116 colon
SNB-75 CNS = tested on: SNB-75 CNS
U251 CNS = tested on: U251 CNS
OVCAR-3 ovarian = tested on: OVCAR-3 ovarian
KM12 colon = tested on: KM12 colon
UO-31 renal = tested on: UO-31 renal
ACHN renal = tested on: ACHN renal
SF-295 CNS = tested on: SF-295 CNS
SK-MEL-28 melanoma = tested on: SK-MEL-28 melanoma
RXF 393 renal = tested on: RXF 393 renal
SK-MEL-5 melanoma = tested on: SK-MEL-5 melanoma
RPMI-8226 leukemia = tested on: RPMI-8226 leukemia
DMS 273 small cell lung = tested on: DMS 273 small cell lung
SN12C renal = tested on: SN12C renal
OVCAR-4 ovarian = tested on: OVCAR-4 ovarian
HT29 colon = tested on: HT29 colon
SF-268 CNS = tested on: SF-268 CNS
MDA-N = tested on: MDA-N
K-562 leukemia = tested on: K-562 leukemia
SF-539 CNS = tested on: SF-539 CNS
SK-OV-3 ovarian = tested on: SK-OV-3 ovarian
786-0 renal = tested on: 786-0 renal
HOP-92 NSCLC = tested on: HOP-92 NSCLC
HOP-18 NSCLC = tested on: HOP-18 NSCLC
UACC-257 melanoma = tested on: UACC-257 melanoma
MDA-MB-231 breast = tested on: MDA-MB-231 breast
HCC-2998 colon = tested on: HCC-2998 colon
OVCAR-8 ovarian = tested on: OVCAR-8 ovarian
DLD-1 colon = tested on: DLD-1 colon
PC-3 prostate = tested on: PC-3 prostate
SR leukemia = tested on: SR leukemia
DMS 114 small cell lung = tested on: DMS 114 small cell lung
NCI-H226 lung = tested on: NCI-H226 lung
COLO 205 colon = tested on: COLO 205 colon
LXFL 529 NSCLC = tested on: LXFL 529 NSCLC
M14 melanoma = tested on: M14 melanoma
MALME-3M melanoma = tested on: MALME-3M melanoma
MDA-MB-435 = tested on: MDA-MB-435
IGROV1 ovarian = tested on: IGROV1 ovarian
NCI-H23 lung = tested on: NCI-H23 lung
MCF7 breast = tested on: MCF7 breast
LOX IMVI melanoma = tested on: LOX IMVI melanoma
A498 renal = tested on: A498 renal
HOP-62 NSCLC = tested on: HOP-62 NSCLC
NCI-H522 lung = tested on: NCI-H522 lung
MOLT-4 leukemia = tested on: MOLT-4 leukemia
DU-145 prostate = tested on: DU-145 prostate
A549 NSCLC = tested on: A549 NSCLC
EKVX NSCLC = tested on: EKVX NSCLC
CCRF-CEM leukemia = tested on: CCRF-CEM leukemia
T-47D breast = tested on: T-47D breast
SNB-19 CNS = tested on: SNB-19 CNS
TK-10 renal = tested on: TK-10 renal
SK-MEL-2 melanoma = tested on: SK-MEL-2 melanoma
XF 498 CNS = tested on: XF 498 CNS
NCI/ADR-RES ovarian = tested on: NCI/ADR-RES ovarian
CAKI-1 renal = tested on: CAKI-1 renal
OVCAR-5 ovarian = tested on: OVCAR-5 ovarian
SW-620 colon = tested on: SW-620 colon
HL-60(TB) leukemia = tested on: HL-60(TB) leukemia
UACC-62 melanoma = tested on: UACC-62 melanoma
KM20L2 colon = tested on: KM20L2 colon
HS 578T breast = tested on: HS 578T breast
SNB-78 CNS = tested on: SNB-78 CNS

Cn1c(=O)c2nc3sc4c(n3c2n(C)c1=O)C(=O)c1ccccc1C4=O
TGI (NCI-H460 lung): > 95.4 µM
TGI (HCT-15 colon): > 86.5 µM
TGI (BT-549 breast): > 61.5 µM
TGI (M19-MEL melanoma): > 100 µM
TGI (RXF-631 renal): > 100 µM
TGI (HCT-116 colon): > 71.4 µM
TGI (SNB-75 CNS): 72.1 µM
TGI (U251 CNS): > 57.5 µM
TGI (OVCAR-3 ovarian): > 50.6 µM
TGI (KM12 colon): > 100 µM
TGI (UO-31 renal): > 76 µM
TGI (ACHN renal): > 54.7 µM
TGI (SF-295 CNS): > 100 µM
TGI (SK-MEL-28 melanoma): > 100 µM
TGI (RXF 393 renal): > 55.3 µM
TGI (SK-MEL-5 melanoma): > 100 µM
TGI (RPMI-8226 leukemia): > 83.4 µM
TGI (DMS 273 small cell lung): > 100 µM
TGI (SN12C renal): > 87.5 µM
TGI (OVCAR-4 ovarian): > 81.4 µM
TGI (HT29 colon): > 56.2 µM
TGI (SF-268 CNS): > 100 µM
TGI (MDA-N): > 100 µM
TGI (K-562 leukemia): > 100 µM
TGI (SF-539 CNS): > 74.2 µM
TGI (SK-OV-3 ovarian): > 60.9 µM
TGI (786-0 renal): > 78.2 µM
TGI (HOP-92 NSCLC): > 42.7 µM
TGI (HOP-18 NSCLC): > 100 µM
TGI (UACC-257 melanoma): > 100 µM
TGI (MDA-MB-231 breast): > 64.6 µM
TGI (HCC-2998 colon): > 100 µM
TGI (OVCAR-8 ovarian): > 74.2 µM
TGI (DLD-1 colon): > 100 µM
TGI (PC-3 prostate): > 76.1 µM
TGI (SR leukemia): > 73 µM
TGI (DMS 114 small cell lung): > 100 µM
TGI (NCI-H226 lung): > 87.2 µM
TGI (COLO 205 colon): > 100 µM
TGI (LXFL 529 NSCLC): > 100 µM
TGI (M14 melanoma): > 100 µM
TGI (MALME-3M melanoma): > 100 µM
TGI (MDA-MB-435): > 76 µM
TGI (IGROV1 ovarian): > 69 µM
TGI (NCI-H23 lung): > 75.1 µM
TGI (MCF7 breast): > 62 µM
TGI (LOX IMVI melanoma): > 54.7 µM
TGI (A498 renal): > 100 µM
TGI (HOP-62 NSCLC): > 53.3 µM
TGI (NCI-H522 lung): 27.9 µM
TGI (MOLT-4 leukemia): 38.3 µM
TGI (DU-145 prostate): > 100 µM
TGI (A549 NSCLC): > 100 µM
TGI (EKVX NSCLC): > 100 µM
TGI (CCRF-CEM leukemia): > 50.3 µM
TGI (T-47D breast): 23.6 µM
TGI (SNB-19 CNS): > 66 µM
TGI (TK-10 renal): > 100 µM
TGI (SK-MEL-2 melanoma): > 75.7 µM
TGI (XF 498 CNS): > 100 µM
TGI (NCI/ADR-RES ovarian): 87.3 µM
TGI (CAKI-1 renal): > 100 µM
TGI (OVCAR-5 ovarian): > 100 µM
TGI (SW-620 colon): > 81.9 µM
TGI (HL-60(TB) leukemia): 45.3 µM
TGI (UACC-62 melanoma): > 100 µM
TGI (KM20L2 colon): > 100 µM
TGI (HS 578T breast): 51.5 µM
TGI (SNB-78 CNS): > 100 µM
